Measurements published in patent publication US20200399308A1, “COMPOUNDS AND METHODS FOR ELICITING ANTIMICROBIAL ACTIVITY” (Technion Research & Development Foundation Limited, priority 2018, published 2020).
In brackets after ≈: the same amount, converted by molar mass. Read-outs that look alike come from different tables or passages of the source. Each block holds one molecule with its values, some of them ahead of it. Non-standard residues stand in square brackets, D forms with d. Residues, ends and D or L forms follow the SMILES beside them. *: point of attachment. 12Ado = NCCCCCCCCCCCC(=O)O; Decanoyl = CCCCCCCCCC(=O)*; Octanoyl = CCCCCCCC(=O)*

Assays:
[1] = Charge at physiological pH (Q); type: physicochemical
[2] = Hydrophobicity (H) by HPLC elution from C18 column; type: physicochemical; conditions: percentage of acetonitrile required for elution
[3] = Critical aggregation concentration by light scattering in PBS; type: physicochemical; conditions: light scattering in phosphate-buffered saline
Method: (§1) Organization of the compounds in aqueous solution was assessed by light-scattering measurements in phosphate buffered saline (PBS; 10 mM Na2HPO4, 150 mM NaCl, pH=7.0). Hemolytic assays were performed as described elsewhere, using fresh mouse red blood cells.
(§2) The mean value (±SD) is shown for Compound C; Minimum inhibitory concentration (MIC) of compounds required to inhibit bacterial proliferation after overnight incubation.

[4] = Hemolytic assay; type: cell-based; conditions: fresh mouse red blood cells (1%); hemolysis of 50% of mouse red blood cells (1%) after 3 hours in PBS; read-out: LC50, fifty percent lethal concentration (hemolysis)
Method: as §1, §2

[5] = test system: Escherichia coli 25922; experiment: Minimal inhibitory concentration; type: cell-based; conditions: Ec 25922, overnight incubation, read-out: MIC
Method: (§3) Minimal inhibitory concentrations (MICs) were determined as previously described. […] MICs were determined by microdilution susceptibility testing in 96-well plates (by Nunc) using inocula of 10^5 bacteria per ml. Cell populations were evaluated by optical density measurements at 620 nm and were calibrated against a set of standards. Hundred (100) μl of a bacterial suspension were added to 100 μl of culture medium (control) or to 100 μl of culture medium containing various tested compound concentrations in 2-fold serial dilutions. Inhibition of proliferation was determined by optical density measurements at 620 nm after an incubation period of 24 hours at 37° C. Data were obtained from ≥2 independent experiments performed in duplicate.
as §2

[6] = test system: Escherichia coli ML35p; experiment: Minimal inhibitory concentration; type: cell-based; conditions: Ec ML35p, overnight incubation
Method: as §3, §2

[7] = test system: Klebsiella pneumoniae 1287; experiment: Minimal inhibitory concentration; type: cell-based; conditions: Kp 1287, overnight incubation, read-out: MIC
Method: as §3, §2

[8] = test system: Klebsiella pneumoniae C2 (carbapenemase 2-producing strain); experiment: Minimal inhibitory concentration; type: cell-based; conditions: Kp C2, overnight incubation, read-out: MIC
Method: as §3, §2

[9] = test system: Pseudomonas aeruginosa 11662; experiment: Minimal inhibitory concentration; type: cell-based; conditions: Pa 11662, overnight incubation, read-out: MIC
Method: as §3, §2

[10] = test system: Pseudomonas aeruginosa 11816; experiment: Minimal inhibitory concentration; type: cell-based; conditions: Pa 11816, overnight incubation, read-out: MIC
Method: as §3, §2

[11] = test system: Salmonella enterica serovar Choleraesuis 7308; experiment: Minimal inhibitory concentration; type: cell-based; conditions: CHOLERAESUIS / SC7308, SC 7308, overnight incubation, read-out: MIC
Method: as §3, §2

[12] = test system: Salmonella enterica serovar Typhimurium 14028; experiment: Minimal inhibitory concentration; type: cell-based; conditions: ST 14028, overnight incubation, read-out: MIC
Method: as §3, §2

[13] = test system: Escherichia coli mutant ML-35p; experiment: Outer and cytoplasmic membrane permeabilization (nitrocefin / ONPG); type: cell-based; conditions: E. coli ML-35p, buffer, 16 minutes after addition
Method: Membrane permeabilization was assessed using E. coli ML-35p as described elsewhere, to monitor the ability of the compounds to perturb the outer and/or cytoplasmic membranes. Reported data were obtained from ≥2 independent experiments performed in duplicate.
Additional support for this view was obtained by comparing the compounds' susceptibility to damage gram-negative bacteria membranes, using the E. coli mutant ML-35p. Widely described in the literature, the mutant was considered herein as representative of all gram-negative bacteria, rather than a specific species. This mutant is constitutive for cytoplasmic β-galactosidase, lacks lactose permease, and expresses a plasmid-encoded periplasmic β-lactamase. Two chromogenic reporter molecules (nitrocefin and 2-nitrophenyl β-d-galactopyranoside, respectively, absorbing at 486 and 420 nm) were used to monitor permeabilization of the outer membrane and/or cytoplasmic membrane in a single assay.

[14] = test system: Escherichia coli 25922; experiment: Mouse peritonitis-sepsis model; type: in vivo; conditions: neutropenic ICR mice; erythromycin 100 mg/kg s.c. + Compound B […] s.c.
Method: A mouse peritonitis-sepsis model was created as described elsewhere. Infection was obtained after intraperitoneal injection of bacteria from a logarithmic-phase culture. Infected mice were treated subcutaneously. The doses were selected to allow comparison with the reference compound and to remain below the maximum tolerated dose after double-dose administration. […] Briefly, mouse peritonitis sepsis model for in vivo studies were performed using male ICR mice ([…]) obtained from Envigo Laboratories (Rehovot, Israel). […] Infection was obtained by intraperitoneal injection of a logarithmic phase culture of E. coli 25922 (1.3±0.2×10^6 CFU permouse in 0.3 ml PBS). […] Infection control mice were injected with the PBS vehicle. Mouse survival was monitored for up to 7 days after treatment. Statistical analyses were performed by paired Student's t test, at α=0.05.

[15] = test system: E. coli strain 14182; experiment: Checkerboard antibiotic MIC with Compound B; type: cell-based, Escherichia coli
Method: as §3
(§4) Shown in parentheses are calculated sensitization factor, defined as antibiotic's MICs ratio (in absence vs. presence of Compound B) at specified Compound B concentration.

[16] = test system: E. coli strain 14384; experiment: Checkerboard antibiotic MIC with Compound B; type: cell-based, Escherichia coli
Method: as §3, §4

[17] = test system: E. coli strain 16327; experiment: Checkerboard antibiotic MIC with Compound B; type: cell-based, Escherichia coli
Method: as §3, §4

[18] = test system: E. coli strain 25922; experiment: Checkerboard antibiotic MIC with Compound B; type: cell-based, Escherichia coli
Method: as §3, §4

[19] = test system: E. coli strain 35218; experiment: Checkerboard antibiotic MIC with Compound B; type: cell-based, Escherichia coli
Method: as §3, §4

[20] = test system: E. coli 25922; experiment: Simultaneous versus delayed drug exposure assay in LB; type: cell-based, Escherichia coli; conditions: Compound B 10 μM with 0.06 μg/ml rifampin or 4 μg/ml erythromycin, LB
Method: (§5) Time-kill kinetics data were determined using 100 μl of bacterial suspension (10^6 CFU/ml), which was added to […] LB containing none of or specified concentrations of the tested compound, antibiotic, and combinations thereof. After the specified exposure time points (37° C. under shaking), aliquots were formed, subjected to serial 10-fold dilutions in saline (0.85% NaCl), and plated for bacterial enumeration after additional 24 hours incubation at 37° C. Time-kill experiments in human and mouse plasma were performed as described elsewhere. The effects of drug delay were assessed in LB, except that bacteria were pre-incubated with the tested compound or antibiotic for the specified time points, centrifuged, and resuspended in fresh LB-containing antibiotic or the tested compound, respectively, and incubated for 3 hours before CFU enumeration.

[21] = test system: E. coli 25922; experiment: Time-kill kinetics in broth versus plasma; type: cell-based, Escherichia coli
Method: as §5

[22] = Subcutaneous 25 mg/kg, published data, cited from earlier work
[23] = test system: OM; experiment: Outer membrane damage by less hydrophobic analogs; type: cell-based

SMILES: CCCCCCCCCC(=O)NC(CCCNC(=N)N)C(=O)NC(CCCNC(=N)N)C(=O)NCCCCCCCCCCCC(=O)NC(CCCNC(=N)N)C(N)=O (stereo not shown) [Compound C] (Decanoyl-RR[12Ado]R-NH2; configuration not given here)
Q, charge at physiological pH [1]: 3
H, hydrophobicity [2]: 46%
CAC, critical aggregation concentration [3]: >100 µM
CC50 at 3 h [4]: 80 ± 1 µM
MIC [5]: 25 µM (≈ 20.9 µg/mL)
MIC [6]: 12.5 µM (≈ 10.5 µg/mL)
MIC [7]: 50 µM (≈ 41.9 µg/mL)
MIC [8]: > 50 µM
MIC [9]: 50 µM (≈ 41.9 µg/mL)
MIC [10]: 50 µM (≈ 41.9 µg/mL)
MIC [11]: > 50 µM
MIC [12]: > 50 µM
cytoplasmic membrane permeabilization [13]: somewhat higher tendency for cytoplasmic membrane damaging

Antibiotic MIC in the presence of Compound B ([15]; Compound B 2.5 μM): 16 µg/mL
Antibiotic MIC in the presence of Compound B ([15]; Compound B 5 μM): 4 µg/mL
Antibiotic MIC in the presence of Compound B ([15]; Compound B 10 μM): 1 µg/mL
Antibiotic MIC in the presence of Compound B ([16]; Compound B 0 μM): >512 µg/mL
Antibiotic MIC in the presence of Compound B ([16]; Compound B 2.5 μM): 2 µg/mL
Antibiotic MIC in the presence of Compound B ([16]; Compound B 5 μM): 1 µg/mL
Antibiotic MIC in the presence of Compound B ([16]; Compound B 10 μM): 0.5 µg/mL
Antibiotic MIC in the presence of Compound B ([16]; Compound B […]): 64 µg/mL
Antibiotic MIC in the presence of Compound B ([17]; Compound B 0 μM): 512 µg/mL
Antibiotic MIC in the presence of Compound B ([17]; Compound B 2.5 μM): 4 µg/mL
Antibiotic MIC in the presence of Compound B ([17]; Compound B 5 μM): 1 µg/mL
Antibiotic MIC in the presence of Compound B ([17]; Compound B 10 μM): 0.5 µg/mL
Antibiotic MIC in the presence of Compound B ([17]; Compound B […]): 64 µg/mL
Antibiotic MIC in the presence of Compound B ([18]; Compound B 2.5 μM): 2 µg/mL
Antibiotic MIC in the presence of Compound B ([18]; Compound B 5 μM): 0.5 to 1 µg/mL
Antibiotic MIC in the presence of Compound B ([18]; Compound B 10 μM): 0.25 µg/mL
Antibiotic MIC in the presence of Compound B ([18]; Compound B […]): 8 µg/mL
Antibiotic MIC in the presence of Compound B ([19]; Compound B 2.5 μM): 4 µg/mL
Antibiotic MIC in the presence of Compound B ([19]; Compound B 5 μM): 1 µg/mL
Antibiotic MIC in the presence of Compound B ([19]; Compound B 10 μM): 0.5 µg/mL
Antibiotic MIC in the presence of Compound B ([19]; Compound B […]): 64 µg/mL
SMILES: CC[C@H]1OC(=O)[C@H](C)[C@@H](O[C@H]2C[C@@](C)(OC)[C@@H](O)[C@H](C)O2)[C@H](C)[C@@H](O[C@@H]2O[C@H](C)C[C@H](N(C)C)[C@H]2O)[C@](C)(O)C[C@@H](C)C(=O)[C@H](C)[C@@H](O)[C@]1(C)O [Erythromycin, erythromycin]
efficacy of combination vs individual administrations [14]: clearly more effective in combination
effect of delayed exposure on sensitization by Compound B [20]: delay by up to 60 (but not 120) minutes revealed maintenance of the sensitization activity
effect on CFU count ([21]; LB broth, 24-hours end point, erythromycin 3 μg/ml combined with Compound B 0.6 μM): did not alter the CFU count
time to accomplish the CFU reduction (more than 3 log units) ([21]; human plasma, antibiotic with Compound B 0.6 μM): ≤ 3 hours
combined action with Compound B ([21]; mouse plasma, 24 hours end point, Compound B 10 μM with rifampin 1 μg/ml or erythromycin 3 μg/ml): expressed synergism of action
Plasma concentration ([22]; 0.5 h): 3700 ng/mL
Plasma concentration ([22]; 1 h): 2300 ng/mL
Plasma concentration ([22]; 2 h): 400 ng/mL

SMILES: CCCCCCCC(=O)N[C@@H](CCCCN)C(=O)N[C@@H](CCCCN)C(=O)NCCCCCCCCCCCC(=O)N[C@@H](CCCCN)C(N)=O [Compound C8KKC12K] (Octanoyl-KK[12Ado]K-NH2)
damage to the OM [23]: able to damage the OM
